Experimental data from US20240317801A1, “PEPTIDOMIMETIC MATRIPTASE 2 INHIBITORS AND USES THEREOF” (Disc Medicine, Inc., priority 2020, published 2024).

The compounds below were run against T1, Human Recombinant Matriptase 2 (Homo sapiens, UniProt Q8IU80) (assay: Matriptase 2 fluorescence-based inhibition assay (Boc-Gln-Ala-Arg-AMC substrate)). Conditions: Ki derived from measured IC50 using Cheng-Prusoff equation; 30 min preincubation, 100 μM substrate, 25° C., pH 7.5; read-out: Mat-2 Ki.
T1 construct: purchased Enzo Life Sciences ALX-201-752-1
T1 sequence (Q8IU80 1-811): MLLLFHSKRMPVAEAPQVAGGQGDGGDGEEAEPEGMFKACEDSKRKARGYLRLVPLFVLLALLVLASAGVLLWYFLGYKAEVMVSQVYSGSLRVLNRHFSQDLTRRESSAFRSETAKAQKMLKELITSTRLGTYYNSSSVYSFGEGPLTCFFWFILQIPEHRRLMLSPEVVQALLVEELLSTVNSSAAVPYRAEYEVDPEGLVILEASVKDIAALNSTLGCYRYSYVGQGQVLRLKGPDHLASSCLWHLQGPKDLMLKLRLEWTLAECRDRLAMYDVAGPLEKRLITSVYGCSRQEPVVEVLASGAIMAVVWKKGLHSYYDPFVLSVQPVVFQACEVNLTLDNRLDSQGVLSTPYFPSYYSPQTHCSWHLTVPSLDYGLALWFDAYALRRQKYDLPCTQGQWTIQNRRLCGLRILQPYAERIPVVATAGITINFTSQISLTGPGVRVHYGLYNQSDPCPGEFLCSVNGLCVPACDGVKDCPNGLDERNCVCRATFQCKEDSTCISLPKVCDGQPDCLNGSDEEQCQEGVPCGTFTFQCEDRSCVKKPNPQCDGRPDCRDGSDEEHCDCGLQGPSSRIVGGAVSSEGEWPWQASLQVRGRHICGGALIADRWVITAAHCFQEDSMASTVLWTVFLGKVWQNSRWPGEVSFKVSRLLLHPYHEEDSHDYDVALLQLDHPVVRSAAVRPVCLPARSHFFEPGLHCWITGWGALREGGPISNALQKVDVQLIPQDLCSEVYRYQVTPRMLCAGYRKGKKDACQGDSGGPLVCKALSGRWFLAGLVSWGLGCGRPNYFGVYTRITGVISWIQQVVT
Format: biochemical
Procedure: Test compounds were evaluated for their potential to inhibit Human Recombinant Matriptase 2 (in-house and commercial protein from Enzo Life Sciences—cat log—ALX-201-752-1) using fluorescence-based assay. The concentration of Recombinant Matriptase 2 and the substrate used in the assay were: 7 nM (commercial) and 15 nM (In-house Matriptase 2) and 100 μM (Boc-Gln-Ala-Arg-7-amido-4-methyl coumarin hydrobromide—Cat log: B4153-Sigma and I-1550 from Bachem) respectively. The assay buffer used comprised 50 mM TRIS pH 7.5, 150 mM NaCl, 0.01% gelatin (G1393 Sigma). The assay was performed by using 384 well black flat bottom plate from Grenier (Cat log: 781076) at 25° C. The enzyme and the test compound were preincubated for 30 mins, and the plate was read at wavelength Ex: 360/Em:480 nm60 mins after substrate addition. The final assay volume of was 20 μl. Stock solution of compounds were initially prepared in DMSO, which were appropriately diluted for screening to determine IC50 determination (final DMSO conc in the assay was 1%). All the measurements were carried out using the Spectramax M5, Molecular devices. The test compounds were screened at 1 and 10 μM concentrations and IC50 was determined for the interested compounds.
Ki is the binding affinity of an inhibitor. Mat-2 Ki as described herein is the binding affinity of an inhibitor such as a compound as described and provided herein to Mat-2. Mat-2 Ki values are derived from the measured IC50. To determine IC50 values, dose-response curves were generated by plotting percentage inhibition as a function of inhibitor concentration and the data was fitted to a sigmoidal non-linear regression equation (variable slope) using Graph Pad Prism software V7. Mat-2 Ki values as described herein were derived from the IC50 using the Cheng-Prusoff equation, which is understood and appreciated by one the skill in the art. The Mat-2 Ki values of tested compounds as described herein are shown in Table A. Accordingly, the compounds can be used to inhibit matriptase 2 and treat diseases and conditions associated with matriptase 2, such as those described herein.

`C[C@@H](O)[C@H](NC(=O)[C@H](CCc1ccccc1)NC(=O)CCc1ccccc1)C(=O)N[C@@H](CCCNC(=N)N)C(=O)C(N)=O` and `CNC(=O)C(=O)[C@H](CCCNC(=N)N)NC(=O)[C@@H](NC(=O)[C@H](CCc1ccccc1)NC(=O)CCc1ccccc1)[C@@H](C)O` cannot be ordered by Ki: ≤ 100 nM for the first, ≤ 100 nM for the second.

`CC(C)(C)NC(=O)C(=O)C(CCCNC(=N)N)NC(=O)C1(NC(=O)[C@H](Cc2cscn2)NC(=O)OCc2ccccc2)CCCC1` (stereo partly drawn) and `CO[C@@H](C)C(NC(=O)[C@H](Cc1cscn1)NC(=O)OCc1ccccc1)C(=O)NC(CCCNC(=N)N)C(=O)C(=O)NC(C)(C)C` (stereo partly drawn) cannot be ordered by Ki: ≤ 100 nM for the first, ≤ 100 nM for the second.

`C[C@@H](O)[C@H](NC(=O)[C@H](Cc1ccc(F)cc1)NC(=O)OCc1ccccc1)C(=O)NC(CCCNC(=N)N)C(=O)C(=O)NC(C)(C)C` (stereo partly drawn) and `CO[C@@H](C)[C@H](NC(=O)C(CCc1ccccc1)NC(=O)OCc1ccccc1)C(=O)NC(CCCNC(=N)N)C(=O)C(=O)NC(C)(C)C` (stereo partly drawn) cannot be ordered by Ki: ≤ 100 nM for the first, ≤ 100 nM for the second.

`C[C@H](O)[C@H](NC(=O)[C@H](CCc1ccccc1)NC(=O)CCc1ccccc1)C(=O)N[C@@H](CCCNC(=N)N)C(=O)C(=O)N[C@@H]1C[C@@H]1F` and `C[C@@H](O)[C@H](NC(=O)[C@H](CCc1ccccc1)NC(=O)CCc1ccccc1)C(=O)N[C@@H](CCCNC(=N)N)C(=O)C(=O)NC1CC1` [(S)—N-cyclopropyl-6-guanidino-3-((2S,3R)-3-hydroxy-2-((S)-4-phenyl-2-(3-phenylpropanamido)butanamido)butanamido)-2-oxohexanamide] cannot be ordered by Ki: ≤ 100 nM for the first, ≤ 100 nM for the second.

`CO[C@H](C)[C@H](NC(=O)[C@H](Cc1cscn1)NC(=O)OC(C)C)C(=O)NC(CCCNC(=N)N)C(=O)C(=O)NC(C)(C)C` (stereo partly drawn) and `CO[C@H](C)[C@H](NC(=O)C(Cc1cscn1)NC(=O)OCc1ccccc1)C(=O)NC(Cc1ccnc(N)c1)C(=O)C(=O)NC(C)(C)C` (stereo partly drawn) cannot be ordered by Ki: ≤ 100 nM for the first, ≤ 100 nM for the second.

`C[C@@H](O)[C@H](NC(=O)C(CCc1ccccc1)NC(=O)OCc1ccccc1)C(=O)NC(CCCS(C)(=N)=O)C(=O)C(=O)NC(C)(C)C` (stereo partly drawn) and `C[C@@H](O)[C@H](NC(=O)C(CCc1ccccc1)NC(=O)OCc1ccccc1)C(=O)NC(CCc1ccc(N)nc1)C(=O)C(=O)NC(C)(C)C` (stereo partly drawn) cannot be ordered by Ki: ≥ 1000 nM for the first, 100 to 1000 nM for the second.

`CC(C)(C)NC(=O)C(=O)[C@H](CCCNC(=N)N)NC(=O)C1COCCN1C(=O)[C@H](Cc1cscn1)NC(=O)OCc1ccccc1` (stereo partly drawn) and `N=C(N)NCCC[C@H](NC(=O)[C@@H]1C[C@@H](O)CN1C(=O)[C@H](CCc1ccccc1)NC(=O)CCc1ccccc1)C(=O)C(=O)NC1CC1` [(2S,4R)—N—((S)-1-(cyclopropylamino)-6-guanidino-1,2-dioxohexan-3-yl)-4-hydroxy-1-((S)-4-phenyl-2-(3-phenylpropanamido)butanoyl)pyrrolidine-2-carboxamide] cannot be ordered by Ki: ≤ 100 nM for the first, ≤ 100 nM for the second.

`C[C@@H](O)[C@H](NC(=O)[C@H](CCc1ccccc1)NC(=O)CCc1ccccc1)C(=O)NC(CCCNC(=N)N)C(=O)C(=O)NCc1cccnc1` (stereo partly drawn) [6-guanidino-3-((2S,3R)-3-hydroxy-2-((S)-4-phenyl-2-(3-phenylpropanamido)butanamido)butanamido)-2-oxo-N-(pyridin-3-ylmethyl)hexanamide] and `C[C@@H](O)[C@H](NC(=O)[C@H](CCc1ccccc1)NC(=O)CCc1ccccc1)C(=O)N[C@@H](CCCNC(=N)N)C(=O)C(=O)NC1(C)CC1` [(S)-6-guanidino-3-((2S,3R)-3-hydroxy-2-((S)-4-phenyl-2-(3-phenylpropanamido)butanamido)butanamido)-N-(1-methylcyclopropyl)-2-oxohexanamide] cannot be ordered by Ki: ≤ 100 nM for the first, ≤ 100 nM for the second.

`N=C(N)NCCC[C@H](NC(=O)[C@@H]1C[C@@H](OCc2ccccc2)CN1C(=O)[C@H](CCc1ccccc1)NC(=O)CCc1ccccc1)C(=O)C(=O)NC1CC1` [(2S,4R)-4-(benzyloxy)-N—((S)-1-(cyclopropylamino)-6-guanidino-1,2-dioxohexan-3-yl)-1-((S)-4-phenyl-2-(3-phenylpropanamido)butanoyl)pyrrolidine-2-carboxamide] and `C[C@@H](O)[C@H](NC(=O)[C@H](CCc1ccccc1)NC(=O)CCc1ccccc1)C(=O)N[C@@H](CC1CCN(C(=N)N)CC1)C(=O)C(=O)NC1CC1` [(3S)-4-(1-carbamimidoylpiperidin-4-yl)-N-cyclopropyl-2-oxidanylidene-3-[[(2S,3R)-3-oxidanyl-2-[[(2S)-4-phenyl-2-(3-phenylpropanoylamino)butanoyl]amino]butanoyl]amino]butanamide] cannot be ordered by Ki: ≤ 100 nM for the first, 100 to 1000 nM for the second.
